Data on three molecules can be found in patent US8377989B2, “Room temperature stable non-crystalline aspirin and method for the preparation thereof” (priority 2007, dated 2013).

A short description of data set [1]: Storage stability of the non-crystalline form at room temperature (appearance, PXRD). It counts as physicochemical. Conditions: for time the non-crystalline glass form remained stable: room temperature. From the text:
Within an hour of the evaporative desolvation process following the laser treatment, the system stabilized with 80 percent or more of the mass of the sample cured to a clear non-crystalline glass rather than a crystalline form.
After the 6 months of storage, the laser treated aspirin was studied by PXRD.
(§1) Subsequent tests with the protocol of Example 2 were repeated with the order of long and short wavelengths reversed, i.e., short wavelength followed by long wavelength cycled sequenced laser treatment. This protocol also produced up to 90 percent yields of room temperature stable non-crystalline glass aspirin, which remained stable at room temperature for over 23 months. The Petri dish containing such a sample of non-crystalline aspirin was placed on edge for a period of about six weeks.

The nature of data set [2]: Flow test: Petri dish with sample placed on edge. Format: physicochemical. Conditions: Example 3; Petri dish on edge for about six weeks.
Source text: as §1

For data set [3] the following is noted: 100 K (−173° C.) versus ambient conditions; cited from earlier work.
The conditions of data set [4]: 298K; vitrified by melting and cooling or ball-milling; cited from earlier work.

Turning to `CC(=O)Oc1ccccc1C(=O)O` [non-crystalline aspirin, acetylsalicylic acid], the “crystallization on further storage” value in data set [1] (Example 2, additional six months of storage after the first 6 months) was “No crystallization has been observed”. The “storage period with no change in appearance of the sample” value in data set [1] (Example 2, room temperature of about 18° to 22° C., about 30 to 40 percent humidity) was “over 6 months”. In addition, the “time remained stable at room temperature” value in data set [1] (Example 3, short wavelength followed by long wavelength laser treatment) was “over 23 months”. The “time the non-crystalline glass form remained stable” value in data set [1] is recorded as “stable at room temperature once the solvent had evaporated”; in data set [1] (listed as glass aspirin), “stable for up to about a year at room temperature”; in data set [1] (listed as non-crystalline glass form), “stable at room temperature for at least up to about a year”. The “time the non-crystalline form remained stable” value in data set [1] (temperature of about 20° to 30° C.) is “stable at a temperature of about 20° to 30 °C for at least about a year”. The “flowing of the sample” value in data set [2] is “No flowing of the sample was observed”.

For the molecule `CC(=O)Oc1ccccc1C(=O)O` [Aspirin Form II], in data set [3], the “stability of the polymorphic form” value is “kinetically stable at 100 K (−173° C.), but converts back to Form I at ambient conditions”.

In the case of `CC(=O)Oc1ccccc1C(=O)O` [vitreous aspirin], the stability against crystallization result in data set [4] is reported as “did not crystallize for four to five days”.
